Source: paper PMC6378327, “Modes of Accessing Bicarbonate for the Regulation of Membrane Guanylate Cyclase (ROS-GC) in Retinal Rods and Cones” (eNeuro, 2019)

Biological target: T1, ROS-GC1 (Bos taurus, UniProt P55203)
T1 construct: gene GUCY2D; core catalytic domain, G817-Y965 (numbering for mature protein), homodimer
Assay: activation of purified recombinant core catalytic domain by […] bicarbonate, cGMP radioimmunoassay
Format: biochemical
Conditions: 30000 µM

T1 sequence (P55203 873-1021): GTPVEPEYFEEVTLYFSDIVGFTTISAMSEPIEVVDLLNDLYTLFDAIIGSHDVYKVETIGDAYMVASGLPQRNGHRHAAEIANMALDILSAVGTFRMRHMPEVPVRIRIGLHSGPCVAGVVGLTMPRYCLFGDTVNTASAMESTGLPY

## O=C(O)O [bicarbonate]
  activation of purified recombinant core catalytic domain by 30 mM bicarbonate, c: 3.4 fold activity at 30 mM
